Publication PMC2574845 (Drug metabolism and disposition: the biological fate of …, 2008)

Tests used:
Metabolism [1] = conditions: mouse liver microsomes, 50 μM BA, pH 7.4, 35 °C; for oxygen consumption rates, NADPH-dependent metabolism, comparison: p<0.05; for relative oxygen consumption rates, NADH-dependent metabolism, rank order: > indicates p<0.05
[2] = Quinone/hydroquinone cycling in microsomal incubations; conditions: microsomal incubation with NAD(P)H; data not shown
[3] = in water; ref Lang et al., 2007; cited from earlier work
[4] = BA-glutathione conjugate formation; conditions: 50 μM BA; for fraction of BA conjugated with glutathione / relative rate of glutathione conjugate formation, rank order: 5 mM glutathione, pH 7.4, room temperature; for fraction of BA conjugated with glutathione: data not shown
[5] = molecular target: recombinant human NQO1 (rhNQO1) (Homo sapiens, UniProt P15559); test: Relative stability of hydroquinone ansamycins; format: physicochemical; conditions: for relative stability of BAH2 (nmol oxygen consumption per nmol NADH oxidized), rank order: 50 mM potassium phosphate buffer, pH 7.4, 35 °C, BAH2 generated by rhNQO1 and NADH, > indicates p<0.05
Metabolism [6] = conditions: human liver microsomes, 50 μM BA, pH 7.4, 35 °C, > indicates p<0.05
rhNQO1 = rhNQO1 (Homo sapiens, UniProt P15559); test: Prevention of GM and 17DMAG glutathione conjugate formation by rhNQO1; format: biochemical; conditions: for prevention of conjugation with glutathione by NQO1 reduction: 50 μM BA, 5 mM GSH, 11.8 μg rhNQO1, 500 μM NADH, pH 7.4, room temperature
[7] = 5 min, 50 μM, pH 7.4
[8] = molecular target: T1, human NADPH-cytochrome P450 reductase (Homo sapiens, UniProt P16435); conditions: GM, NADH and NADPH-cytochrome P450 reductase, no NADPH
T1 sequence (P16435 1-677): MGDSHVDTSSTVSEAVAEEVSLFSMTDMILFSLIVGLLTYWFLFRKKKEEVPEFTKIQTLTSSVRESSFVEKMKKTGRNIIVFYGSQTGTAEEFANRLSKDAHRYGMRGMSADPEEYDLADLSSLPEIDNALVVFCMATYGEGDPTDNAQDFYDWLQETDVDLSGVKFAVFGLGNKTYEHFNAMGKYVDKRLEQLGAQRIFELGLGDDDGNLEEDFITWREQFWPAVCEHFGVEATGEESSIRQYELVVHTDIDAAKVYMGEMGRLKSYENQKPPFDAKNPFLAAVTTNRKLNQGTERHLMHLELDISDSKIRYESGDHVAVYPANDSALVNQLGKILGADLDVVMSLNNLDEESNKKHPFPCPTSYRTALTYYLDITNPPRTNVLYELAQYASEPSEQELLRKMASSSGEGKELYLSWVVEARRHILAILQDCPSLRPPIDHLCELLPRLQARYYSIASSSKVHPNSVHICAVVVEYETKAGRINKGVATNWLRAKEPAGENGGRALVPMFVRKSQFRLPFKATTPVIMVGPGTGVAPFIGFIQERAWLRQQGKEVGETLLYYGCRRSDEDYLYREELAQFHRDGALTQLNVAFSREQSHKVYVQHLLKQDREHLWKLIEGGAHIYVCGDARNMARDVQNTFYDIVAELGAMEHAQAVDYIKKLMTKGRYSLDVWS

recombinant human NQO1 (rhNQO1), sequence (P15559 whole entry): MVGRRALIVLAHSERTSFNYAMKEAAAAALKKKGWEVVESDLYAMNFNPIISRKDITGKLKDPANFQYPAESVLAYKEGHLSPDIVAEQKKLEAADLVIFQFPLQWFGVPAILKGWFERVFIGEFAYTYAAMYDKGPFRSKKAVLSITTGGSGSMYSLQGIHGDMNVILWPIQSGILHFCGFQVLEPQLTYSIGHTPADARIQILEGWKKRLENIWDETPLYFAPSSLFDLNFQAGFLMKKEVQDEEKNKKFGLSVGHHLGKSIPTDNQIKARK
rhNQO1, sequence (P15559 whole entry): as above

Q: Which results are given for C=CCNC1=C2C[C@@H](C)C[C@H](OC)[C@H](O)[C@@H](C)/C=C(\C)[C@H](OC(N)=O)[C@@H](OC)/C=C\C=C(/C)C(=O)NC(=CC1=O)C2=O [17AAG, 17-(allylamino)-17-demethoxygeldanamycin]?
A: oxygen consumption rates, NADPH-dependent metabolism, comparison (Metabolism [1]): significantly slower compared to GM; compound in the quinone form on HPLC [2]: > 95%; one-electron redox potential [3]: −0.390 V; fraction of BA conjugated with glutathione ([4]; after 24 hours): less than 15%

Q: With C=CCNc1c(O)cc2c(O)c1C[C@@H](C)C[C@H](OC)[C@H](O)[C@@H](C)/C=C(\C)[C@H](OC(N)=O)[C@@H](OC)/C=C\C=C(/C)C(=O)N2 [17AAGH2, 17-(allylamino)-17-demethoxygeldanamycin hydroquinone] as the compound, how does the “relative stability of BAH2 (nmol oxygen consumption per nmol NADH oxidized), rank order” value [5] read?
A: The value was “GMH2>17AAGH2>17DMAGH2>17AGH2, 17AEP-GAH2”.

Q: Which results are given for CO[C@H]1/C=C\C=C(/C)C(=O)NC2=CC(=O)C(NCCN3CCCC3)=C(C[C@@H](C)C[C@H](OC)[C@H](O)[C@@H](C)/C=C(\C)[C@@H]1OC(N)=O)C2=O [17AEP-GA, 17-demethoxy-17-[[2-(pyrrolidin-1-yl)ethyl]amino]-geldanamycin]?
A: relative oxygen consumption rates, NADH-dependent metabolism, rank order (Metabolism [1]): GM>17DMAG>17AG, 17AEP-GA, 17AAG; oxygen consumption rates, NADPH-dependent metabolism, comparison (Metabolism [1]): significantly greater than 17AAG; relative oxygen consumption rates, NADH-dependent metabolism, rank order (Metabolism [6]): GM>17DMAG, 17AG, 17AEP-GA>17AAG; relative oxygen consumption rates, NADPH-dependent metabolism, rank order (Metabolism [6]): GM, 17DMAG, 17AEP-GA>17AG>17AAG; relative rate of glutathione conjugate formation, rank order [4]: GM>17DMAG>17AEP-GA>17AAG, 17AG; fraction of BA conjugated with glutathione ([4]; within 10 hours): about 90%

Q: What does the source list for COC1C=CC=C(C)C(=O)Nc2cc(O)c(NCCN3CCCC3)c(c2O)CC(C)CC(OC)C(O)C(C)C=C(C)C1OC(N)=O (stereo not shown) [17AEP-GAH2, 17-demethoxy-17-[[2-(pyrrolidin-1-yl)ethyl]amino]-geldanamycin hydroquinone]?
A: relative stability of BAH2 (nmol oxygen consumption per nmol NADH oxidized), rank order [5]: GMH2>17AAGH2>17DMAGH2>17AGH2, 17AEP-GAH2; half-life of auto-oxidation of BAH2 back to quinone (in words) ([5]; auto-oxidation over time): a few minutes

Q: For CO[C@H]1/C=C\C=C(/C)C(=O)NC2=CC(=O)C(N)=C(C[C@@H](C)C[C@H](OC)[C@H](O)[C@@H](C)/C=C(\C)[C@@H]1OC(N)=O)C2=O [17AG, 17-(amino)-17-demethoxygeldanamycin], which “relative oxygen consumption rates, NADH-dependent metabolism, rank order” value (Metabolism [1]) is on record?
A: The value was “GM>17DMAG>17AG, 17AEP-GA, 17AAG”.

Q: What about the “oxygen consumption rates, NADPH-dependent metabolism, comparison” value (Metabolism [1]) of the same compound?
A: The value was “significantly greater than 17AAG”.

Q: And the “compound in the quinone form on HPLC” value [2]?
A: The value was greater than 95%.

Q: And the “relative oxygen consumption rates, NADH-dependent metabolism, rank order” value (Metabolism [6])?
A: The value was “GM>17DMAG, 17AG, 17AEP-GA>17AAG”.

Q: And the “relative oxygen consumption rates, NADPH-dependent metabolism, rank order” value (Metabolism [6])?
A: Its value is “GM, 17DMAG, 17AEP-GA>17AG>17AAG”.

Q: And the “relative rate of glutathione conjugate formation, rank order” value [4]?
A: Its value is “GM>17DMAG>17AEP-GA>17AAG, 17AG”.

Q: What about the “fraction of BA conjugated with glutathione” value ([4]; after 24 hours) of the same compound?
A: Its value is “less than 15%”.

Q: With COC1C=CC=C(C)C(=O)Nc2cc(O)c(N)c(c2O)CC(C)CC(OC)C(O)C(C)C=C(C)C1OC(N)=O (stereo not shown) [17AGH2, 17-(amino)-17-demethoxygeldanamycin hydroquinone] as the compound, how does the “relative stability of BAH2 (nmol oxygen consumption per nmol NADH oxidized), rank order” value [5] read?
A: Its value is “GMH2>17AAGH2>17DMAGH2>17AGH2, 17AEP-GAH2”.

Q: For CO[C@H]1/C=C\C=C(/C)C(=O)NC2=CC(=O)C(NCCN(C)C)=C(C[C@@H](C)C[C@H](OC)[C@H](O)[C@@H](C)/C=C(\C)[C@@H]1OC(N)=O)C2=O [17DMAG, 17-demethoxy-17-[[2-(dimethylamino)ethyl]amino]-geldanamycin], which “relative oxygen consumption rates, NADH-dependent metabolism, rank order” value (Metabolism [1]) is on record?
A: Its value is “GM>17DMAG>17AG, 17AEP-GA, 17AAG”.

Q: What about the “oxygen consumption rates, NADPH-dependent metabolism, comparison” value (Metabolism [1]) of the same compound?
A: Its value is “significantly greater than 17AAG”.

Q: What about the “compound in the quinone form on HPLC” value [2] of the same compound?
A: The value was greater than 95%.

Q: What about the “relative oxygen consumption rates, NADH-dependent metabolism, rank order” value (Metabolism [6]) of the same compound?
A: The value was “GM>17DMAG, 17AG, 17AEP-GA>17AAG”.

Q: And the “relative oxygen consumption rates, NADPH-dependent metabolism, rank order” value (Metabolism [6])?
A: The value was “GM, 17DMAG, 17AEP-GA>17AG>17AAG”.

Q: What about the “relative rate of glutathione conjugate formation, rank order” value [4] of the same compound?
A: Its value is “GM>17DMAG>17AEP-GA>17AAG, 17AG”.

Q: And the “glutathione conjugate (17DMAG-SG) formed” value ([4]; 5 mM reduced glutathione, phosphate buffer pH 7.4, room temperature, within 4 hours)?
A: Its value is “approximately 47 μM”.

Q: What about the “prevention of conjugation with glutathione by NQO1 reduction” value (rhNQO1) of the same compound?
A: Its value is greater than 95%.

Q: For CO[C@H]1/C=C\C=C(/C)C(=O)Nc2cc(O)c(NCCN(C)C)c(c2O)C[C@@H](C)C[C@H](OC)[C@H](O)[C@@H](C)/C=C(\C)[C@@H]1OC(N)=O [17DMAGH2, 17-demthoxy-17-[[2-(dimethylamino)ethyl]amino]-geldanamycin hydroquinone], which “relative stability of BAH2 (nmol oxygen consumption per nmol NADH oxidized), rank order” value [5] is on record?
A: The value was “GMH2>17AAGH2>17DMAGH2>17AGH2, 17AEP-GAH2”.

Q: With COC1=CC(=O)c2c(c(COc3ccc([N+](=O)[O-])cc3)c(C)n2C)C1=O [ES936, 5-methoxy-1,2-dimethyl-3-[(4-nitrophenoxy)methyl]indole-4,7-dione] as the compound, how does the “effect on NQO1-mediated prevention of BA glutathione conjugation” value (rhNQO1; pretreatment with 2 μM ES936, GM or 17DMAG with NADH, rhNQO1 and glutathione) read?
A: Its value is “abrogated”.

Q: Which results are given for COC1=C2C[C@@H](C)C[C@H](OC)[C@H](O)[C@@H](C)/C=C(\C)[C@H](OC(N)=O)[C@@H](OC)/C=C\C=C(/C)C(=O)NC(=CC1=O)C2=O [GM, geldanamycin]?
A: relative oxygen consumption rates, NADH-dependent metabolism, rank order (Metabolism [1]): GM>17DMAG>17AG, 17AEP-GA, 17AAG; oxygen consumption rates, NADPH-dependent metabolism, comparison (Metabolism [1]): significantly greater than 17AAG; glutathione conjugate (GMH2-SG) formed [7]: approximately 45 μM; compound in the quinone form on HPLC [2]: about 70%; one-electron redox potential [3]: −0.243 V; relative oxygen consumption rates, NADH-dependent metabolism, rank order (Metabolism [6]): GM>17DMAG, 17AG, 17AEP-GA>17AAG; relative oxygen consumption rates, NADPH-dependent metabolism, rank order (Metabolism [6]): GM, 17DMAG, 17AEP-GA>17AG>17AAG; relative rate of glutathione conjugate formation, rank order [4]: GM>17DMAG>17AEP-GA>17AAG, 17AG; prevention of conjugation with glutathione by NQO1 reduction (rhNQO1): > 95%; oxygen consumption with NADH as cofactor [8]: no oxygen consumption was observed

Q: For COc1c(O)cc2c(O)c1C[C@@H](C)C[C@H](OC)[C@H](O)[C@@H](C)/C=C(\C)[C@H](OC(N)=O)[C@@H](OC)/C=C\C=C(/C)C(=O)N2 [GMH2, geldanamycin hydroquinone], which “relative stability of BAH2 (nmol oxygen consumption per nmol NADH oxidized), rank order” value [5] is on record?
A: The value was “GMH2>17AAGH2>17DMAGH2>17AGH2, 17AEP-GAH2”.

Q: What about the “half-life of auto-oxidation of BAH2 back to quinone” value ([5]; auto-oxidation over time) of the same compound?
A: The value was “about 20 hours”.
